The numbers were not newly measured in US20230068267A1, “PLANT EXTRACT COMPOSITION FOR THE TREATMENT OF CARDIOVASCULAR AND METABOLIC DISEASES” (Meda Pharma S.p.A., priority 2020, published 2023), which cites them from elsewhere.

For one data set, the system named is LDL cholesterol. The note with it: Yu et. al. 2005.
For a further data set, the target named is T1, HMG-CoA reductase (Homo sapiens, UniProt P04035).
T1 sequence (P04035 1-888): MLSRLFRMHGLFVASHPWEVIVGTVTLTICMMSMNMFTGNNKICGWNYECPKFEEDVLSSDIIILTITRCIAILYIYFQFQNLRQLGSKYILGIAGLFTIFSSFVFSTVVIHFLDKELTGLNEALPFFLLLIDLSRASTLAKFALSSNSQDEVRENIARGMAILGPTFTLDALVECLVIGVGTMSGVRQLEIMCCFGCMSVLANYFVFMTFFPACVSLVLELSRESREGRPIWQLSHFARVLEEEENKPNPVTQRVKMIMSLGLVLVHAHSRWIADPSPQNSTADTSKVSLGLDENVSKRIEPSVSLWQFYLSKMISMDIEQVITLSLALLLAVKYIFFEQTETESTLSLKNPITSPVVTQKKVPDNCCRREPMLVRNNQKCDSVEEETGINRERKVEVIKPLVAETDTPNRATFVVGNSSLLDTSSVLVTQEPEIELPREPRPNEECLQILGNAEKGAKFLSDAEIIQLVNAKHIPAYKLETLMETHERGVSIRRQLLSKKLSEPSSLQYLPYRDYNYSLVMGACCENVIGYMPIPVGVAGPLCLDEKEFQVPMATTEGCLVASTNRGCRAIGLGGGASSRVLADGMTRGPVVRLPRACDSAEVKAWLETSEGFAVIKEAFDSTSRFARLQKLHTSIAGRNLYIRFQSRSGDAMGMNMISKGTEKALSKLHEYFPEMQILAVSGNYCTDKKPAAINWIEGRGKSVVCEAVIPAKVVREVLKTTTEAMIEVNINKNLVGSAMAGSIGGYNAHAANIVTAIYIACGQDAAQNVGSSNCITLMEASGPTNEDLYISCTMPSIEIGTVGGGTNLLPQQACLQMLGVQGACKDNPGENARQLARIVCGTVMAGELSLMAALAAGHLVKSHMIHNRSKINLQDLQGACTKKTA
The following applies: statin-like properties; Di Donna 2009.

For the molecule Rutin, the “inhibition of the oxidation of LDL cholesterol” value in the data set with LDL cholesterol is reported as “inhibit the oxidation of LDL cholesterol”.
With `C[C@@H]1O[C@@H](O[C@@H]2[C@@H](Oc3cc(O)c4c(c3)O[C@H](c3ccc(O)cc3)CC4=O)O[C@@H](COC(=O)C[C@@](C)(O)CC(=O)O)[C@H](O)[C@H]2O)[C@@H](O)[C@H](O)[C@H]1O` [Melitidin], the “inhibitory action upon HMG-CoA reductase” value at HMG-CoA reductase was “inhibitory action upon HMG-CoA reductase”.
`COc1ccc([C@@H]2CC(=O)c3c(O)cc(O[C@H]4O[C@@H](COC(=O)C[C@@](C)(O)CC(=O)O)[C@H](O)[C@@H](O)[C@@H]4O[C@@H]4O[C@@H](C)[C@H](O)[C@@H](O)[C@@H]4O)cc3O2)cc1O` [brutieridin]: the “inhibitory action upon HMG-CoA reductase” value at HMG-CoA reductase is “inhibitory action upon HMG-CoA reductase”.
